Laboratory results taken from patent US20230172204A1 (BASF SE, priority 2020, published 2023).

Columns and labels:
[1] = test system: Phakopsora pachyrhizi (F129L); experiment: Protective control of soybean rust on soybeans (PHAKPA P2); format: in vivo; settings: for % PHAKPA (F129L) Disease level P2 at 4 ppm: protective P2, 4 ppm; for % PHAKPA (F129L) Disease level P2 at 4 ppm / % PHAKPA (F129L) Disease level P2 at 16 ppm: soybean rust F129L; for % PHAKPA (F129L) Disease level P2 at 16 ppm: protective P2, 16 ppm
[2] = test system: Phakopsora pachyrhizi (F129L); experiment: Protective control of soybean rust on soybeans (PHAKPA P6); format: in vivo; settings: for % PHAKPA (F129L) Disease level P6 at 4 ppm: protective P6, 4 ppm; for % PHAKPA (F129L) Disease level P6 at 4 ppm / % PHAKPA (F129L) Disease level P6 at 16 ppm: soybean rust F129L; for % PHAKPA (F129L) Disease level P6 at 16 ppm: protective P6, 16 ppm
[3] = P2 protective, % diseased leaf area
[4] = P6 protective, % diseased leaf area

C#Cc1ccccc1/C(C)=N/OCc1c(C)cccc1/C(=N\OC)C(=O)OC [compound 122]
% PHAKPA (F129L) Disease level P2 at 4 ppm [1]: 100%
% PHAKPA (F129L) Disease level P2 at 16 ppm [1]: 73%
% PHAKPA (F129L) Disease level P6 at 4 ppm [2]: 93%
% PHAKPA (F129L) Disease level P6 at 16 ppm [2]: 90%

CO/N=C(/C(=O)OC)c1cccc(C)c1CO/N=C(\C)c1cccc(Br)c1F [compound 134]
% PHAKPA (F129L) Disease level P2 at 4 ppm [1]: 37%
% PHAKPA (F129L) Disease level P2 at 16 ppm [1]: 10%
% PHAKPA (F129L) Disease level P6 at 4 ppm [2]: 22%
% PHAKPA (F129L) Disease level P6 at 16 ppm [2]: 7%

CO/N=C(/C(=O)OC)c1cccc(C)c1CO/N=C(\C)c1ccc(Cl)c(C)c1 [compound 102]
% PHAKPA (F129L) Disease level P2 at 4 ppm [1]: 60%
% PHAKPA (F129L) Disease level P2 at 16 ppm [1]: 11%
% PHAKPA (F129L) Disease level P6 at 4 ppm [2]: 90%
% PHAKPA (F129L) Disease level P6 at 16 ppm [2]: 43%

CNC(=O)/C(=N/OC)c1cccc(C)c1CO/N=C(\C)c1ccccc1Cl [compound 128]
% PHAKPA (F129L) Disease level P2 at 4 ppm [1]: 32%
% PHAKPA (F129L) Disease level P2 at 16 ppm [1]: 2%
% PHAKPA (F129L) Disease level P6 at 4 ppm [2]: 77%
% PHAKPA (F129L) Disease level P6 at 16 ppm [2]: 2%

CNC(=O)/C(=N/OC)c1ccccc1CO/N=C(\C)c1ccccc1Br [reference compound]
PHAKPA (F129L) Disease level (%) P2 at 16 ppm [1, 3]: 23%
PHAKPA (F129L) Disease level (%) P6 at 16 ppm [2, 4]: 28%

CO/N=C(/C(=O)OC)c1cccc(C)c1CO/N=C(\C)c1c(F)cc(F)cc1OC(F)(F)F [compound 361]
% PHAKPA (F129L) Disease level P2 at 4 ppm [1]: 80%
% PHAKPA (F129L) Disease level P2 at 16 ppm [1]: 18%
% PHAKPA (F129L) Disease level P6 at 4 ppm [2]: 88%
% PHAKPA (F129L) Disease level P6 at 16 ppm [2]: 31%

CO/N=C(/C(=O)OC)c1cccc(C)c1CO/N=C(\C)c1cccc(C#CC(F)(F)F)c1 [compound 52]
% PHAKPA (F129L) Disease level P2 at 4 ppm [1]: 63%
% PHAKPA (F129L) Disease level P2 at 16 ppm [1]: 28%
% PHAKPA (F129L) Disease level P6 at 4 ppm [2]: 90%
% PHAKPA (F129L) Disease level P6 at 16 ppm [2]: 43%

CO/N=C(/C(=O)OC)c1cccc(C)c1CO/N=C(\C)c1cc(Br)ccc1F [compound 138]
% PHAKPA (F129L) Disease level P2 at 4 ppm [1]: 47%
% PHAKPA (F129L) Disease level P2 at 16 ppm [1]: 2%
% PHAKPA (F129L) Disease level P6 at 4 ppm [2]: 35%
% PHAKPA (F129L) Disease level P6 at 16 ppm [2]: 1%

CCc1cc(/C(C)=N/OCc2c(C)cccc2/C(=N\OC)C(=O)NC)cc(C(F)(F)F)c1 [compound 151]
% PHAKPA (F129L) Disease level P2 at 4 ppm [1]: 37%
% PHAKPA (F129L) Disease level P2 at 16 ppm [1]: 3%
% PHAKPA (F129L) Disease level P6 at 4 ppm [2]: 53%
% PHAKPA (F129L) Disease level P6 at 16 ppm [2]: 6%

CC/C(=N\OCc1c(C)cccc1/C(=N\OC)C(=O)OC)c1cccc(C(F)(F)F)c1 [compound 204]
% PHAKPA (F129L) Disease level P2 at 4 ppm [1]: 50%
% PHAKPA (F129L) Disease level P2 at 16 ppm [1]: 4%
% PHAKPA (F129L) Disease level P6 at 4 ppm [2]: 80%
% PHAKPA (F129L) Disease level P6 at 16 ppm [2]: 5%

CO/C=C(/C(=O)OC)c1cccc(C)c1CO/N=C(\C)c1ccc(C)cc1C(F)(F)F [compound 446]
% PHAKPA (F129L) Disease level P2 at 4 ppm [1]: 2%
% PHAKPA (F129L) Disease level P2 at 16 ppm [1]: 0%
% PHAKPA (F129L) Disease level P6 at 4 ppm [2]: 6%
% PHAKPA (F129L) Disease level P6 at 16 ppm [2]: 0%

CO/C=C(/C(=O)OC)c1cccc(C)c1CO/N=C(\C)c1ccc(-c2ccc(F)cc2)cc1C(F)(F)F [compound 432]
% PHAKPA (F129L) Disease level P2 at 4 ppm [1]: 12%
% PHAKPA (F129L) Disease level P2 at 16 ppm [1]: 0%
% PHAKPA (F129L) Disease level P6 at 4 ppm [2]: 13%
% PHAKPA (F129L) Disease level P6 at 16 ppm [2]: 3%

CO/N=C(/C(=O)OC)c1cccc(C)c1CO/N=C(\C)c1ccc(OC(F)(F)F)cc1C [compound 259]
% PHAKPA (F129L) Disease level P2 at 4 ppm [1]: 80%
% PHAKPA (F129L) Disease level P2 at 16 ppm [1]: 17%
% PHAKPA (F129L) Disease level P6 at 4 ppm [2]: 93%
% PHAKPA (F129L) Disease level P6 at 16 ppm [2]: 40%

CNC(=O)/C(=N/OC)c1cccc(C)c1CO/N=C(\C)c1ccc(C)cc1OC(F)(F)F [compound 340]
% PHAKPA (F129L) Disease level P2 at 4 ppm [1]: 23%
% PHAKPA (F129L) Disease level P2 at 16 ppm [1]: 4%
% PHAKPA (F129L) Disease level P6 at 4 ppm [2]: 42%
% PHAKPA (F129L) Disease level P6 at 16 ppm [2]: 7%

CNC(=O)/C(=N/OC)c1cccc(C)c1CO/N=C(\C)c1c(F)cc(F)cc1OC(F)(F)F [compound 344]
% PHAKPA (F129L) Disease level P2 at 4 ppm [1]: 6%
% PHAKPA (F129L) Disease level P2 at 16 ppm [1]: 0%
% PHAKPA (F129L) Disease level P6 at 4 ppm [2]: 16%
% PHAKPA (F129L) Disease level P6 at 16 ppm [2]: 0%

CNC(=O)/C(=N/OC)c1cccc(C)c1CO/N=C(\C)c1c(F)ccc(F)c1OC(F)(F)F [compound 346]
% PHAKPA (F129L) Disease level P2 at 4 ppm [1]: 4%
% PHAKPA (F129L) Disease level P2 at 16 ppm [1]: 0%
% PHAKPA (F129L) Disease level P6 at 4 ppm [2]: 5%
% PHAKPA (F129L) Disease level P6 at 16 ppm [2]: 0%

CC/C(=N\OCc1c(C)cccc1/C(=N\OC)C(=O)NC)c1ccccc1C(F)(F)F [compound 189]
% PHAKPA (F129L) Disease level P2 at 4 ppm [1]: 82%
% PHAKPA (F129L) Disease level P2 at 16 ppm [1]: 28%
% PHAKPA (F129L) Disease level P6 at 4 ppm [2]: 97%
% PHAKPA (F129L) Disease level P6 at 16 ppm [2]: 37%

CNC(=O)/C(=N/OC)c1cccc(C)c1CO/N=C(\C)c1cc(F)c(F)cc1C(F)(F)F [compound 410]
% PHAKPA (F129L) Disease level P2 at 4 ppm [1]: 9%
% PHAKPA (F129L) Disease level P2 at 16 ppm [1]: 0%
% PHAKPA (F129L) Disease level P6 at 4 ppm [2]: 35%
% PHAKPA (F129L) Disease level P6 at 16 ppm [2]: 1%

CNC(=O)/C(=N/OC)c1cccc(C)c1CO/N=C(\C)c1cccc(Cl)c1C(F)(F)F [compound 422]
% PHAKPA (F129L) Disease level P2 at 4 ppm [1]: 30%
% PHAKPA (F129L) Disease level P2 at 16 ppm [1]: 0%
% PHAKPA (F129L) Disease level P6 at 4 ppm [2]: 32%
% PHAKPA (F129L) Disease level P6 at 16 ppm [2]: 2%

CNC(=O)/C(=N/OC)c1cccc(C)c1CO/N=C(\C)c1ccc(F)cc1OC(F)(F)F [compound 378]
% PHAKPA (F129L) Disease level P2 at 4 ppm [1]: 18%
% PHAKPA (F129L) Disease level P2 at 16 ppm [1]: 1%
% PHAKPA (F129L) Disease level P6 at 4 ppm [2]: 17%
% PHAKPA (F129L) Disease level P6 at 16 ppm [2]: 1%

CO/N=C(/C(=O)OC)c1cccc(C)c1CO/N=C(\C)c1ccc(F)c(C(F)(F)F)c1 [compound 49]
% PHAKPA (F129L) Disease level P2 at 4 ppm [1]: 60%
% PHAKPA (F129L) Disease level P2 at 16 ppm [1]: 18%
% PHAKPA (F129L) Disease level P6 at 4 ppm [2]: 60%
% PHAKPA (F129L) Disease level P6 at 16 ppm [2]: 7%

CO/N=C(/C(=O)OC)c1cccc(C)c1CO/N=C(\C)c1c(F)ccc(F)c1OC(F)(F)F [compound 366]
% PHAKPA (F129L) Disease level P2 at 4 ppm [1]: 53%
% PHAKPA (F129L) Disease level P2 at 16 ppm [1]: 13%
% PHAKPA (F129L) Disease level P6 at 4 ppm [2]: 83%
% PHAKPA (F129L) Disease level P6 at 16 ppm [2]: 12%

CNC(=O)/C(=N/OC)c1cccc(C)c1CO/N=C(\C)c1ccc(Cl)c(C(F)(F)F)c1 [Ex. 60]
PHAKPA (F129L) Disease level (%) P2 at 16 ppm [1, 3]: 0%
% PHAKPA (F129L) Disease level P2 at 4 ppm [1]: 23%
% PHAKPA (F129L) Disease level P2 at 16 ppm [1]: 1%
PHAKPA (F129L) Disease level (%) P6 at 16 ppm [2, 4]: 0%
% PHAKPA (F129L) Disease level P6 at 4 ppm [2]: 53%
% PHAKPA (F129L) Disease level P6 at 16 ppm [2]: 2%

CO/N=C(/C(=O)OC)c1cccc(C)c1CO/N=C(\C)c1ccccc1Cl [compound 116]
% PHAKPA (F129L) Disease level P2 at 4 ppm [1]: 85%
% PHAKPA (F129L) Disease level P2 at 16 ppm [1]: 57%
% PHAKPA (F129L) Disease level P6 at 4 ppm [2]: 85%
% PHAKPA (F129L) Disease level P6 at 16 ppm [2]: 67%

CO/N=C(/C(=O)OC)c1ccccc1CO/N=C(\C)c1cccc(C(F)(F)F)c1 [Trifloxystrobin, trifloxystrobin, reference compound]
PHAKPA (F129L) Disease level (%) P2 at 4 ppm ([1]; P2 protective, 4 ppm, % diseased leaf area): 71%
PHAKPA (F129L) Disease level (%) P2 at 16 ppm [1, 3]: 17%
PHAKPA (F129L) Disease level (%) P6 at 4 ppm ([2]; P6 protective, 4 ppm, % diseased leaf area): 79%
PHAKPA (F129L) Disease level (%) P6 at 16 ppm [2, 4]: 33%

CO/N=C(/C(=O)OC)c1cccc(C)c1CO/N=C(\C)c1ccc(C)c(C)c1 [compound 137]
% PHAKPA (F129L) Disease level P2 at 4 ppm [1]: 19%
% PHAKPA (F129L) Disease level P2 at 16 ppm [1]: 2%
% PHAKPA (F129L) Disease level P6 at 4 ppm [2]: 50%
% PHAKPA (F129L) Disease level P6 at 16 ppm [2]: 5%

CO/N=C(/C(=O)OC)c1cccc(C)c1CO/N=C(\C)c1cc(Cl)cc(C(F)(F)F)c1 [compound 33]
% PHAKPA (F129L) Disease level P2 at 4 ppm [1]: 50%
% PHAKPA (F129L) Disease level P2 at 16 ppm [1]: 33%
% PHAKPA (F129L) Disease level P6 at 4 ppm [2]: 60%
% PHAKPA (F129L) Disease level P6 at 16 ppm [2]: 75%

CO/N=C(/C(=O)OC)c1cccc(C)c1CO/N=C(\C)c1cc(Cl)ccc1Cl [compound 117]
% PHAKPA (F129L) Disease level P2 at 4 ppm [1]: 85%
% PHAKPA (F129L) Disease level P2 at 16 ppm [1]: 10%
% PHAKPA (F129L) Disease level P6 at 4 ppm [2]: 88%
% PHAKPA (F129L) Disease level P6 at 16 ppm [2]: 12%

CO/N=C(/C(=O)OC)c1cccc(C)c1CO/N=C(\C)c1cc(F)ccc1Br [compound 254]
% PHAKPA (F129L) Disease level P2 at 4 ppm [1]: 100%
% PHAKPA (F129L) Disease level P2 at 16 ppm [1]: 77%
% PHAKPA (F129L) Disease level P6 at 4 ppm [2]: 100%
% PHAKPA (F129L) Disease level P6 at 16 ppm [2]: 100%
